# Activity calls are given as the source filed them. No cut-off for these calls is given here.
# How the values were obtained:
# MDA-MB-231 [1] = test: Antiproliferative activity against human MDA-MB-231 cells after 48 hrs by MTT assay; assay type: functional, cell-based; conditions: MDA-MB-231, 48 h
# MDA-MB-231 [2] = test: Antiproliferative activity against human MDA-MB-231 cells at 20 uM after 48 hrs by MTT assay; assay type: functional, cell-based
# MIA PaCa-2 [3] = test: Induction of apoptosis in human MIAPaCa2 cells assessed as early apoptotic cells at 0.6 uM after 48 hrs by Annexin V-FITC/propidium iodide staining based flow cytometry (reference value: 1.28%); assay type: functional
# MIA PaCa-2 [4] = test: Induction of apoptosis in human MIAPaCa2 cells assessed as live cells at 0.6 uM after 24 hrs by Annexin V-FITC/propidium iodide staining based flow cytometry (reference value: 98.3%); assay type: functional
# MIA PaCa-2 [5] = test: Induction of apoptosis in human MIAPaCa2 cells assessed as necrotic cells at 0.6 uM after 36 hrs by Annexin V-FITC/propidium iodide staining based flow cytometry (reference value: 0.06%); assay type: functional
# [6] = Toxicity in NOD/SCID mouse xenografted with human MIAPaCa2 cells assessed as body weight loss at 25 mg/kg, ip administered every 3.5 days per week for 5 weeks; assay type: organism-based; conditions: in vivo
# MIA PaCa-2 [7] = test: Induction of apoptosis in human MIAPaCa2 cells assessed as late apoptotic cells at 0.6 uM after 12 hrs by Annexin V-FITC/propidium iodide staining based flow cytometry (reference value: 0.07%); assay type: functional
# MIA PaCa-2 [8] = test: Induction of apoptosis in human MIAPaCa2 cells assessed as necrotic cells at 0.6 uM after 12 hrs by Annexin V-FITC/propidium iodide staining based flow cytometry (reference value: 0.04%); assay type: functional
# U-87 MG = test: Antiproliferative activity against human U87 cells after 48 hrs by MTT assay; assay type: functional, cell-based, U-87MG ATCC
# MIA PaCa-2 [9] = test: Induction of apoptosis in human MIAPaCa2 cells assessed as late apoptotic cells at 0.6 uM after 48 hrs by Annexin V-FITC/propidium iodide staining based flow cytometry (reference value: 0.21%); assay type: functional
# [10] = Antiproliferative activity against human CL1-5 cells after 48 hrs by MTT assay; assay type: functional, cell-based; conditions: CL1-5, 48 h
# MIA PaCa-2 [11] = test: Cell cycle arrest in human MIAPaCa2 cells assessed as accumulation in S phase at 0.6 uM after 36 hrs by propidium iodide staining based flow cytometry (reference value: 38%); assay type: functional
# MIA PaCa-2 [12] = test: Induction of apoptosis in human MIAPaCa2 cells assessed as late apoptotic cells at 0.6 uM after 24 hrs by Annexin V-FITC/propidium iodide staining based flow cytometry (reference value: 0.16%); assay type: functional
# SK-HEP1 = test: Antiproliferative activity against human SKHEP1 cells after 48 hrs by MTT assay; assay type: functional, cell-based; conditions: SK-HEP1, 48 h
# MIA PaCa-2 [13] = test: Induction of apoptosis in human MIAPaCa2 cells assessed as early apoptotic cells at 0.6 uM after 24 hrs by Annexin V-FITC/propidium iodide staining based flow cytometry (reference value: 1.49%); assay type: functional
# MIA PaCa-2 [14] = test: Induction of apoptosis in human MIAPaCa2 cells assessed as down regulation of Bcl-2 protein expression at 0.2 to 0.8 uM after 12 to 48 hrs by western immunoblot analysis; assay type: functional, cell-based
# MIA PaCa-2 [15] = test: Induction of apoptosis in human MIAPaCa2 cells assessed as live cells at 0.6 uM after 12 hrs by Annexin V-FITC/propidium iodide staining based flow cytometry (reference value: 98.9%); assay type: functional
# MIA PaCa-2 [16] = test: Induction of apoptosis in human MIAPaCa2 cells assessed as early apoptotic cells at 0.6 uM after 12 hrs by Annexin V-FITC/propidium iodide staining based flow cytometry (reference value: 1%); assay type: functional
# MIA PaCa-2 [17] = test: Cell cycle arrest in human MIAPaCa2 cells assessed as accumulation in G2/M phase at 0.6 uM after 24 hrs by propidium iodide staining based flow cytometry relative to control; assay type: functional
# MIA PaCa-2 [18] = test: Cell cycle arrest in human MIAPaCa2 cells assessed as accumulation in S phase at 0.6 uM after 48 hrs by propidium iodide staining based flow cytometry (reference value: 19.7%); assay type: functional
# NCI-H460 = test: Antiproliferative activity against human H460 cells after 48 hrs by MTT assay; assay type: functional, cell-based; conditions: NCI-H460, 48 h
# MIA PaCa-2 [19] = test: Induction of apoptosis in human MIAPaCa2 cells assessed as late apoptotic cells at 0.6 uM after 36 hrs by Annexin V-FITC/propidium iodide staining based flow cytometry (reference value: 0.24%); assay type: functional
# A549 = test: Antiproliferative activity against human A549 cells after 48 hrs by MTT assay; assay type: functional, cell-based; conditions: A549, 48 h
# MIA PaCa-2 [20] = test: Antitumor activity against human MIAPaCa2 cells xenografted in NOD/SCID mouse assessed as tumor growth inhibition at 25 mg/kg, ip administered every 3.5 days per week for 5 weeks measured on day 38 post treatment relative to control; assay type: functional; conditions: MIA PaCa-2, ip, read-out: TGI
# MIA PaCa-2 [21] = test: Induction of apoptosis in human MIAPaCa2 cells assessed as necrotic cells at 0.6 uM after 48 hrs by Annexin V-FITC/propidium iodide staining based flow cytometry (reference value: 0.06%); assay type: functional
# NCI-H441 = test: Antiproliferative activity against human H441 cells after 48 hrs by MTT assay; assay type: functional, cell-based; conditions: NCI-H441, 48 h
# MIA PaCa-2 [22] = test: Induction of apoptosis in human MIAPaCa2 cells assessed as live cells at 0.6 uM after 48 hrs by Annexin V-FITC/propidium iodide staining based flow cytometry (reference value: 98.4%); assay type: functional
# MIA PaCa-2 [23] = test: Induction of apoptosis in human MIAPaCa2 cells assessed as down regulation of Bak protein expression at 0.2 to 0.8 uM after 12 to 48 hrs by western immunoblot analysis; assay type: functional, cell-based
# Mahlavu = test: Antiproliferative activity against human Mahlavu cells after 48 hrs by MTT assay; assay type: functional, cell-based
# MIA PaCa-2 [24] = test: Induction of apoptosis in human MIAPaCa2 cells assessed as live cells at 0.6 uM after 36 hrs by Annexin V-FITC/propidium iodide staining based flow cytometry (reference value: 98%); assay type: functional
# MIA PaCa-2 [25] = test: Induction of apoptosis in human MIAPaCa2 cells assessed as upregulation of cleaved PARP protein expression at 0.2 to 0.8 uM after 12 to 48 hrs by western immunoblot analysis; assay type: functional, cell-based
# MIA PaCa-2 [26] = test: Induction of apoptosis in human MIAPaCa2 cells assessed as necrotic cells at 0.6 uM after 24 hrs by Annexin V-FITC/propidium iodide staining based flow cytometry (reference value: 0.06%); assay type: functional
# MIA PaCa-2 [27] = test: Cell cycle arrest in human MIAPaCa2 cells assessed as accumulation in G2/M phase at 0.6 uM after 48 hrs by propidium iodide staining based flow cytometry relative to control; assay type: functional
# MIA PaCa-2 [28] = test: Induction of apoptosis in human MIAPaCa2 cells assessed as early apoptotic cells at 0.6 uM after 36 hrs by Annexin V-FITC/propidium iodide staining based flow cytometry (reference value: 1.7%); assay type: functional
# HCT-116 = test: Antiproliferative activity against human HCT116 cells after 48 hrs by MTT assay; assay type: functional, cell-based; conditions: HCT-116, 48 h
# MIA PaCa-2 [29] = test: Antiproliferative activity against human MIAPaCa2 cells after 48 hrs by MTT assay; assay type: functional, cell-based; conditions: MIA PaCa-2, 48 h
# MIA PaCa-2 [30] = test: Cell cycle arrest in human MIAPaCa2 cells assessed as accumulation in G2/M phase at 0.6 uM after 36 hrs by propidium iodide staining based flow cytometry relative to control; assay type: functional
# MIA PaCa-2 [31] = test: Cell cycle arrest in human MIAPaCa2 cells assessed as accumulation in S phase at 0.6 uM after 24 hrs by propidium iodide staining based flow cytometry (reference value: 38%); assay type: functional
compound,measurement,setting,value
Oc1ccc2[nH]cc(C(c3cc(Br)c(C(c4c[nH]c5ccc(O)cc45)c4c[nH]c5ccc(O)cc45)cc3Br)c3c[nH]c4ccc(O)cc34)c2c1,IC50,MDA-MB-231 [1],2450 nM
Oc1ccc2[nH]cc(C(c3ccc4ccc(C(c5c[nH]c6ccc(O)cc56)c5c[nH]c6ccc(O)cc56)cc4c3)c3c[nH]c4ccc(O)cc34)c2c1,IC50,MDA-MB-231 [1],> 20000 nM
Oc1ccc2[nH]cc(C(c3c[nH]c4ccc(O)cc34)c3c4ccccc4c(C(c4c[nH]c5ccc(O)cc45)c4c[nH]c5ccc(O)cc45)c4ccccc34)c2c1,IC50,MDA-MB-231 [1],710 nM
Oc1ccc2[nH]cc(C(c3c[nH]c4ccc(O)cc34)c3cccc4c(C(c5c[nH]c6ccc(O)cc56)c5c[nH]c6ccc(O)cc56)cccc34)c2c1,IC50,MDA-MB-231 [1],4000 nM
Oc1ccc2[nH]cc(C(/C=C/c3ccc(/C=C/C(c4c[nH]c5ccc(O)cc45)c4c[nH]c5ccc(O)cc45)cc3)c3c[nH]c4ccc(O)cc34)c2c1,IC50,MDA-MB-231 [1],2000 nM
Oc1ccc2[nH]cc(C(c3ccc(-c4cc(C(c5c[nH]c6ccc(O)cc56)c5c[nH]c6ccc(O)cc56)c(-c5ccc(C(c6c[nH]c7ccc(O)cc67)c6c[nH]c7ccc(O)cc67)cc5)cc4C(c4c[nH]c5ccc(O)cc45)c4c[nH]c5ccc(O)cc45)cc3)c3c[nH]c4ccc(O)cc34)c2c1,Activity,MDA-MB-231 [2],inactive
Oc1ccc2[nH]cc(C(c3c(Cl)c(Cl)c(C(c4c[nH]c5ccc(O)cc45)c4c[nH]c5ccc(O)cc45)c(Cl)c3Cl)c3c[nH]c4ccc(O)cc34)c2c1,Activity,MIA PaCa-2 [3],5.28%
same,Activity,MIA PaCa-2 [4],97.6%
same,Activity,MIA PaCa-2 [5],0.2%
same,Activity,[6],Non-Toxic
same,IC50,MDA-MB-231 [1],560 nM
same,Activity,MIA PaCa-2 [7],0.58%
same,Activity,MIA PaCa-2 [8],0.09%
same,IC50,U-87 MG,> 5000 nM
same,Activity,MIA PaCa-2 [9],1.18%
same,IC50,[10],630 nM
same,Activity,MIA PaCa-2 [11],51.4%
same,Activity,MIA PaCa-2 [12],0.3%
same,IC50,SK-HEP1,470 nM
same,Activity,MIA PaCa-2 [13],2.1%
same,Activity,MIA PaCa-2 [14],Active
same,Activity,MIA PaCa-2 [15],98.6%
same,Activity,MIA PaCa-2 [16],0.71%
same,Activity,MIA PaCa-2 [17],12%
same,Activity,MIA PaCa-2 [18],46.4%
same,IC50,NCI-H460,830 nM
same,Activity,MIA PaCa-2 [19],0.96%
same,IC50,A549,2440 nM
same,inhibition in vivo at 25 mg/kg,MIA PaCa-2 [20],35%
same,Activity,MIA PaCa-2 [21],0.23%
same,IC50,NCI-H441,600 nM
same,Activity,MIA PaCa-2 [22],93.3%
same,Activity,MIA PaCa-2 [23],Active
same,IC50,Mahlavu,3500 nM
same,Activity,MIA PaCa-2 [24],95.6%
same,Activity,MIA PaCa-2 [25],Active
same,Activity,MIA PaCa-2 [26],0.03%
same,Activity,MIA PaCa-2 [27],20%
same,Activity,MIA PaCa-2 [28],3.21%
same,IC50,HCT-116,1320 nM
same,IC50,MIA PaCa-2 [29],190 nM
same,Activity,MIA PaCa-2 [30],16%
same,Activity,MIA PaCa-2 [31],55.8%
Oc1ccc2[nH]cc(C(Cc3ccc(CC(c4c[nH]c5ccc(O)cc45)c4c[nH]c5ccc(O)cc45)cc3)c3c[nH]c4ccc(O)cc34)c2c1,IC50,MDA-MB-231 [1],> 20000 nM
Oc1ccc2[nH]cc(C(c3c(F)c(F)c(C(c4c[nH]c5ccc(O)cc45)c4c[nH]c5ccc(O)cc45)c(F)c3F)c3c[nH]c4ccc(O)cc34)c2c1,IC50,MDA-MB-231 [1],560 nM
Cc1cc(C(c2c[nH]c3ccc(O)cc23)c2c[nH]c3ccc(O)cc23)c(C)cc1C(c1c[nH]c2ccc(O)cc12)c1c[nH]c2ccc(O)cc12,IC50,MDA-MB-231 [1],8000 nM
Cc1c(C)c(C(c2c[nH]c3ccc(O)cc23)c2c[nH]c3ccc(O)cc23)c(C)c(C)c1C(c1c[nH]c2ccc(O)cc12)c1c[nH]c2ccc(O)cc12,IC50,MDA-MB-231 [1],1020 nM
Oc1ccc2[nH]cc(C(/C=C/c3ccc(C(CC(c4c[nH]c5ccc(O)cc45)c4c[nH]c5ccc(O)cc45)c4c[nH]c5ccc(O)cc45)cc3)c3c[nH]c4ccc(O)cc34)c2c1 (stereo not drawn),IC50,MDA-MB-231 [1],> 20000 nM
Oc1ccc2[nH]cc(C(c3ccc4cc(C(c5c[nH]c6ccc(O)cc56)c5c[nH]c6ccc(O)cc56)ccc4c3)c3c[nH]c4ccc(O)cc34)c2c1,IC50,MDA-MB-231 [1],> 20000 nM
Oc1ccc2[nH]cc(C(c3c[nH]c4ccc(O)cc34)c3ccc(C(c4c[nH]c5ccc(O)cc45)c4c[nH]c5ccc(O)cc45)c4ccccc34)c2c1,IC50,MDA-MB-231 [1],20000 nM
Oc1ccc2[nH]cc(C(c3ccc4ccc5ccc(C(c6c[nH]c7ccc(O)cc67)c6c[nH]c7ccc(O)cc67)nc5c4n3)c3c[nH]c4ccc(O)cc34)c2c1,IC50,MDA-MB-231 [1],> 20000 nM
Oc1ccc2[nH]cc(C(c3c[nH]c4ccc(O)cc34)c3c4c(c(C(c5c[nH]c6ccc(O)cc56)c5c[nH]c6ccc(O)cc56)c5ccccc35)CCCC4)c2c1,IC50,MDA-MB-231 [1],1500 nM
Oc1ccc2[nH]cc(C(c3ccc(-c4ccc(C(c5c[nH]c6ccc(O)cc56)c5c[nH]c6ccc(O)cc56)cc4)cc3)c3c[nH]c4ccc(O)cc34)c2c1,IC50,MDA-MB-231 [1],10000 nM

# Reference: ChEMBL document CHEMBL4477263, “Nature-inspired design of tetraindoles: Optimization of the core structure and evaluation of structure-activity relationship” (Bioorg Med Chem Lett, 2016)
